Columns and labels:
[1] = system: DU-145 (prostate cancer); assay: MTT antiproliferative assay, DU-145; type: cell-based; conditions: Homo sapiens, DU-145; MTT, 48 h; read-out: Antiproliferative Activity GI50, Prostate DU-145
Method: (§1) Briefly, the tumor cells (1×10^4 cells/well) were seeded in 96-well microtiter plates and incubated for 24 h at 37° C. Following incubation, the media was replaced with fresh media containing the above compounds at concentrations ranging from 1 μM to 1 pM diluted in DMSO and incubated for an additional 48 h. Drugs were run in duplicate or triplicate and control cells received fresh media with DMSO concentration equivalent to the treatment groups. […] After aspirating the culture medium, 200 μL of DMSO was added to dissolve the precipitate and the resulting solution was measured for absorbance at 570 nm with a reference wavelength of 690 nm using a microplate reader (Infinite M200 Pro TECAN).

[2] = system: MDA-MB-231 (breast cancer); assay: MTT antiproliferative assay, MDA-MB-231; type: cell-based; conditions: Homo sapiens, MDA-MB-231; MTT, 48 h; read-out: Antiproliferative Activity GI50, Breast MDA-MB-231
Method: as §1

COC(=O)[C@H]1CSSCC/C=C/C(O)CC(=O)N[C@H](CCSC)C(=O)N1 (stereo partly drawn) [TDF3m, Methyl (4S,7R,12E)-11-hydroxy-7-[2-(methylsulfanyl)ethyl]-6,9-dioxo-1,2-dithia-5,8-diazacyclopentadec-12-ene-4-carboxylate]
GI50 [1]: 0.3 µM | GI50 [2]: 0.6 µM
